Test [1] addresses T1, Na^+,K^+ -ATPase (Homo sapiens, UniProt P05023).
T1 construct: Na^+,K^+ -ATPase receptor purified according to Jorghensen; from tissue
In words: displacement of the specific 3H-ouabain binding from the purified Na+,K+-ATPase receptor. The text has this: (§1) To test the affinity for the receptor site of the Na^+,K^+ -ATPase and the inhibitory activity on the enzyme, the following tests were used: a) displacement of the specific ^3 H-ouabain binding from the Na^+,K^+ -ATPase receptor purified according to Jorghensen (Jorghensen P., BBA, 1974, 356, 36) and Erdmann (Erdmann E. et at., Arzneim.Forsh., 1984, 34, 1314): b) inhibition of the activity of the purified Na^+,K^+ -ATPase measured as % of hydrolysis of ^32 P-ATP in presence and in absence of the tested compound (Doucet A. et at., Am.

Test [2] deals with T1, Na^+,K^+ -ATPase. Nature of the test: inhibition of the activity of the purified Na+,K+-ATPase measured as % of hydrolysis of 32P-ATP. Type of test: biochemical.
Source text: as §1

The subject of test [3] is spontaneous hypertensive rats (MHS). Nature of the test: blood pressure lowering in spontaneous hypertensive MHS rats (indirect tail-cuff, oral, ten days). The conditions noted are these: n = 7, 20 mg/Kg/os daily in METHOCEL 0.5% w/v; for SBP (systolic blood pressure): controls 172 +/- 2.0; for HR (heart rate): controls 328 +/- 8.6. Type of test: in vivo, rat (Milan hypertensive strain. The text has this: To test the affinity for the receptor site of the Na^+,K^+ -ATPase and the inhibitory activity on the enzyme, the following tests were used: a) displacement of the specific ^3 H-ouabain binding from the Na^+,K^+ -ATPase receptor purified according to Jorghensen (Jorghensen P., BBA, 1974, 356, 36) and Erdmann (Erdmann E. et at., Arzneim.Forsh., 1984, 34, 1314): b) inhibition of the activity of the purified Na^+,K^+ -ATPase measured as % of hydrolysis of ^32 P-ATP in presence and in absence of the tested compound (Doucet A. et at., Am. […] The ability of these compounds to lower blood pressure was tested by using animal models with genetic arterial hypertension, in particular, spontaneous hypertensive rats of the Milan (MHS) (Bianchi G., Ferrari P., Barber B. The Milan Hypertensive strain. In Handbook of hypertension. Vol.4: Experimental and genetic models of hypertension. Ed. W. de jong-Elsevier Science Publishers B.V., 1984: 328-349).
The procedure adopted to test the antihypertensive activity of the compounds on the above mentioned model was the following: systolic blood pressure (SBP) and heart rate (HR) were measured by an indirect tail-cuff method in three-month old hypertensive rats (MHS) before beginning the treatment (basal values). The rats were then subdivided in two groups of at least 7 animals each, one receiving the compound the other, the control group, receiving only the vehicle. The compound, suspended in METHOCEL 0.5% (w/v), was administered daily by mouth, for ten days. SBP and HR were measured daily 6 and 24 hours after the treatment. At the end of the ten day treatment period, a washout period of at least two days was carried out, in order to check for how long the SBP was mantained low or the basal values were re-established.

The conditions of test [4]: literature statement; cited from earlier work.
Setting [5] is: 3H-ouabain displacement, purified Na+,K+-ATPase, read-out: Binding ^3 H-Ouab. Displacement log IC50 (converted).
[6] abbreviates: purified Na+,K+-ATPase, 32P-ATP hydrolysis, read-out: Inhibitory Activity log IC50 (converted).

With `C[C@]12C=C[C@H](O)C[C@@H]1CC[C@@H]1[C@@H]2CC[C@]2(C)[C@@](O)(c3ccoc3)CC[C@]12O` [Comp. I - ab, 17β-(3-Furyl)-5α-androst-1-ene-3β,14β, 17α-triol], the IC50 (as a rule, the concentration that gives 50% inhibition) on Na^+,K^+ -ATPase [1] (setting [5]) is 3.98 µM; on Na^+,K^+ -ATPase [2] (setting [6]), 31.6 µM.

As for `C[C@]12CC[C@H]3[C@@H](CCC4=C[C@@H](O)CC[C@@]43C)[C@@]1(O)CC[C@]2(O)c1ccccc1` [Comp. I - ac, 17β-Phenylandrost-4-ene-3β,14β,17α-triol], the figures for the IC50 at Na^+,K^+ -ATPase [1] (setting [5]) and at Na^+,K^+ -ATPase [2] (setting [6]) were 6.31 µM and 79.4 µM, respectively.

Consider `C[C@]12CC[C@H]3[C@@H](CCC4=C[C@@H](OCCCN)CC[C@@]43C)[C@@]1(O)CC[C@]2(O)c1ccccc1` [Comp. I - ae, 3β-(3-Aminopropoxy)-17β-phenylandrost-4-ene-14β,17α-diol], for which, in test [3], the “SBP (systolic blood pressure)” value is 157 +/- 3.7 mm Hg and the “HR (heart rate)” value is recorded as 312 +/- 9.4 beats/min.

With `C[C@]12CC[C@H]3[C@@H](CCC4=C[C@@H](O)CC[C@@]43C)[C@@]1(O)CC[C@]2(O)c1ccoc1` [Comp. I - ah, 17β-(3-Furyl)androst-4-ene-3β,14β,17α-triol], on Na^+,K^+ -ATPase [1] (setting [5]), the IC50 was 3.16 µM. Besides, the IC50 on Na^+,K^+ -ATPase [2] (setting [6]) was 50.1 µM. Moreover, in test [3], the “SBP (systolic blood pressure)” value is 154 +/- 4.1 mm Hg and the “HR (heart rate)” value is on record as 315 +/- 10.1 beats/min.

Take `C[C@]12CC[C@H]3[C@@H](CCC4=C[C@@H](OCCO)CC[C@@]43C)[C@@]1(O)CC[C@]2(O)c1ccoc1` [Comp. I - ai, 3β-(2-Hydroxyethoxy)-17β-(3-furyl)androst-4-ene-14β,17α-diol]: the IC50 at Na^+,K^+ -ATPase [1] (setting [5]) is 5.01 µM; on Na^+,K^+ -ATPase [2] (setting [6]) it was 39.8 µM.

With `C[C@]12CC[C@H]3[C@@H](CCC4=C[C@@H](OCCCN)CC[C@@]43C)[C@@]1(O)CC[C@]2(O)c1ccoc1` [Comp. I - aj, 3β-(3-Aminopropoxy)-17β-(3-furyl)androst-4-ene-14β,17α-diol], on Na^+,K^+ -ATPase [1] (setting [5]), the concentration for half-maximal inhibition (IC50) was 1 µM. Moreover, on Na^+,K^+ -ATPase [2] (setting [6]), the IC50 is 12.6 µM. In addition, in test [3], the “SBP (systolic blood pressure)” value was 150 +/- 3.9 mm Hg and the “HR (heart rate)” value is 310 +/- 9.0 beats/min.

Regarding `C[C@]12CC[C@H]3[C@@H](CC=C4C[C@@H](O)CC[C@@]43C)[C@@]1(O)CC[C@]2(O)c1ccccc1` [Comp. I - ap, 17β-Phenylandrost-5-ene-3β,14β,17α-triol], the IC50 is 7.94 µM at Na^+,K^+ -ATPase [1] (setting [5]) and 100 µM at Na^+,K^+ -ATPase [2] (setting [6]).

As for `C[C@]12CC[C@H]3[C@@H](C=CC4=C[C@@H](O)CC[C@@]43C)[C@@]1(O)CC[C@]2(O)c1ccccc1` [Comp. I - au, 17β-Phenylandrosta-4,6-diene-3β,14β,17α-triol], the IC50 at Na^+,K^+ -ATPase [1] (setting [5]) is 5.01 µM; on Na^+,K^+ -ATPase [2] (setting [6]), 31.6 µM.

Consider `C[C@]12CC[C@H](O)C[C@@H]1CC[C@@H]1[C@@H]2CC[C@]2(C)[C@@](O)(c3ccccc3)CC[C@]12O` [Comp. I - ay, 17β-Phenyl-5α-androstane-3β,14β,17α-triol], for which the IC50 on Na^+,K^+ -ATPase [1] (setting [5]) is 5.01 µM; on Na^+,K^+ -ATPase [2] (setting [6]), 79.4 µM.

`COc1ccc([C@@]2(O)CC[C@]3(O)[C@@H]4CCC5=C[C@@H](O)CC[C@]5(C)[C@H]4CC[C@]23C)cc1` [Comp. I - bi, 17β-(4-Methoxyphenyl)androst-4-ene-3β,14β,17α-triol]: the IC50 at Na^+,K^+ -ATPase [1] (setting [5]) is 3.16 µM; at Na^+,K^+ -ATPase [2] (setting [6]), 39.8 µM.

As to `C[C@]12CC[C@H]3[C@@H](CC=C4C[C@@H](O)CC[C@@]43C)[C@@]1(O)CC[C@]2(O)c1ccc(Cl)cc1` [Comp. I - bj, 17β-(4-Chlorophenyl)androst-5-ene-3β,14β,17α-triol], the values for the IC50 at Na^+,K^+ -ATPase [1] (setting [5]) and on Na^+,K^+ -ATPase [2] (setting [6]) were 5.01 µM and 100 µM, respectively.

As to `C[C@]12CC[C@H](O)C[C@@H]1CC[C@@H]1[C@@H]2CC[C@]2(C)[C@@](O)(c3ccsc3)CC[C@]12O` [Comp. I - bk, 17β-(3-Thienyl)-5α-androstane-3β,14β,17α-triol], the IC50 at Na^+,K^+ -ATPase [1] (setting [5]) is 7.94 µM; at Na^+,K^+ -ATPase [2] (setting [6]), 63.1 µM.

Turning to `C[C@]12CC[C@H](O)C[C@@H]1CC[C@@H]1[C@@H]2CC[C@]2(C)[C@@](O)(c3cccnc3)CC[C@]12O` [Comp. I - bl, 17β-(3-Pyridyl)-5α-androstane-3β,14β,17α-triol], on Na^+,K^+ -ATPase [1] (setting [5]), the IC50 is 5.01 µM. Besides, the IC50 on Na^+,K^+ -ATPase [2] (setting [6]) was 63.1 µM. In test [3], the “SBP (systolic blood pressure)” value was 156 +/- 3.5 mm Hg and the “HR (heart rate)” value is 318 +/- 9.5 beats/min.

On to `C[C@]12CC[C@H]3[C@@H](CC=C4C[C@@H](O)CC[C@@]43C)[C@@]1(O)CC[C@]2(O)c1nccs1` [Comp. I - bn, 17β-(2-Thiazolyl)androst-5-ene-3β,14β,17α-triol], for which the IC50 at Na^+,K^+ -ATPase [1] (setting [5]) is 7.94 µM; on Na^+,K^+ -ATPase [2] (setting [6]), 63.1 µM.

Consider `CN(C)c1ccc([C@@]2(O)CC[C@]3(O)[C@@H]4CC=C5C[C@@H](O)CC[C@]5(C)[C@H]4CC[C@]23C)cc1` [Comp. I - bp, 17β-(4-(N,N-Dimethylaminophenyl))androst-5-ene-3β,14β,17α-triol], for which the IC50 is 6.31 µM at Na^+,K^+ -ATPase [1] (setting [5]) and 50.1 µM at Na^+,K^+ -ATPase [2] (setting [6]).

Regarding `C[C@]12CC[C@H]3[C@@H](CC=C4C[C@@H](O)CC[C@@]43C)[C@@]1(O)CC[C@]2(O)c1ccco1` [Comp. I - bq, 17β-(2-Furyl)androst-5-ene-3β,14β,17α-triol], the values for the IC50 at Na^+,K^+ -ATPase [1] (setting [5]) and on Na^+,K^+ -ATPase [2] (setting [6]) were 5.01 µM and 79.4 µM, respectively.

For the compound `C[C@]12CC[C@H]3[C@@H](CCC4=C[C@@H](OCCN5CCCC5)CC[C@@]43C)[C@@]1(O)CC[C@]2(O)c1ccoc1` [Comp. I - br, 3β-(2-(1-Prrolidinyl)ethoxy)-17β-(3-furyl)androst-4-ene-14β,17α-diol], the figures for the IC50 on Na^+,K^+ -ATPase [1] (setting [5]) and at Na^+,K^+ -ATPase [2] (setting [6]) were 1.58 µM and 25.1 µM, respectively.

As for `CNCCO[C@@H]1C=C2CC[C@@H]3[C@H](CC[C@]4(C)[C@@](O)(c5ccoc5)CC[C@]34O)[C@@]2(C)CC1` [Comp. I - bt, 3β-(2-Methylaminoethoxy)-17β-(3-furyl)androst-4-ene-14β,17α-diol], the figures for the IC50 on Na^+,K^+ -ATPase [1] (setting [5]) and at Na^+,K^+ -ATPase [2] (setting [6]) were 3.16 µM and 50.1 µM, respectively.

`C[C@]12CC[C@H]3[C@@H](CCC4=C[C@@H](OCCCNC(=N)N)CC[C@@]43C)[C@@]1(O)CC[C@]2(O)c1ccoc1` [Comp. I - bu]: the IC50 at Na^+,K^+ -ATPase [1] (setting [5]) was 3.16 µM; on Na^+,K^+ -ATPase [2] (setting [6]) it was 63.1 µM.

Regarding `C[C@]12CC[C@H]3[C@@H](CCC4=C[C@@H](OCC(O)CO)CC[C@@]43C)[C@@]1(O)CC[C@]2(O)c1ccoc1` (stereo partly drawn) [Comp. I - bv, 3β-((2RS)-2,3-Dihydroxypropoxy)-17β-(3-furyl)androst-4-ene-14β,17α-diol], the IC50 was 3.98 µM on Na^+,K^+ -ATPase [1] (setting [5]) and 79.4 µM on Na^+,K^+ -ATPase [2] (setting [6]).

With `C[C@]12CC[C@H]3[C@@H](CCC4=C[C@@H](OCC(N)CN)CC[C@@]43C)[C@@]1(O)CC[C@]2(O)c1ccoc1` (stereo partly drawn) [Comp. I - bw, 3β-((2RS)-2,3-Diaminopropoxy)-17β-(3-furyl)-androst-4-ene-14β,17α-diol], the IC50 is 3.98 µM at Na^+,K^+ -ATPase [1] (setting [5]) and 100 µM on Na^+,K^+ -ATPase [2] (setting [6]).

Consider `C[C@]12CC[C@H]3[C@@H](CCC4=C[C@@H](SCCCN)CC[C@@]43C)[C@@]1(O)CC[C@]2(O)c1ccoc1` [Comp. I - by, 3β-(3-Aminopropylthio)-17β-(3-furyl)androst-4-ene-14β,17α-diol], for which the IC50 is 1.58 µM on Na^+,K^+ -ATPase [1] (setting [5]) and 12.6 µM on Na^+,K^+ -ATPase [2] (setting [6]).

Take `C[C@]12CC[C@H](O)C[C@H]1CC[C@@H]1[C@@H]2CC[C@]2(C)[C@@](O)(C3=CC(=O)OC3)CC[C@]12O` [Ref. comp., 3β,14β,17α-trihydroxy-5β-card-20(22)-enolide, reference compound]: the 50% inhibitory concentration (IC50) at Na^+,K^+ -ATPase [1] was 1.26 µM; against Na^+,K^+ -ATPase [2], 5.01 µM. Moreover, the “SBP (systolic blood pressure)” value in test [3] was 174 +/- 2.1 mm Hg. Also, the “HR (heart rate)” value in test [3] is listed as 340 +/- 10.2 beats/min. Further, the antihypertensive action entry in test [4] is listed as “do not show antihypertensive action”.

(Values after patent US5556846A, “17-heterocyclyl-14beta-5alpha-androstane, androstene and androstadiene derivatives active on the cardiovascular system, and pharmaceutical compositions containing same” (Sigma-Tau Industrie Farmaceutiche Riunite S.p.A., priority 1992, dated 1996).)
